Patent publication US20240174634A1, “Aldehyde Dehydrogenase Inhibitors and Their Therapeutic Use” (priority 2020, published 2024)

Key:
[1] = molecular target: T1, ALDH1A1 (Homo sapiens, UniProt P00352); assay: Selectivity biochemical assay, NAD(P)H-Glo Detection System
T1 construct: His-tag; made in house; host or cells: E. coli Rosetta (DE3)
T1 sequence (P00352 1-501): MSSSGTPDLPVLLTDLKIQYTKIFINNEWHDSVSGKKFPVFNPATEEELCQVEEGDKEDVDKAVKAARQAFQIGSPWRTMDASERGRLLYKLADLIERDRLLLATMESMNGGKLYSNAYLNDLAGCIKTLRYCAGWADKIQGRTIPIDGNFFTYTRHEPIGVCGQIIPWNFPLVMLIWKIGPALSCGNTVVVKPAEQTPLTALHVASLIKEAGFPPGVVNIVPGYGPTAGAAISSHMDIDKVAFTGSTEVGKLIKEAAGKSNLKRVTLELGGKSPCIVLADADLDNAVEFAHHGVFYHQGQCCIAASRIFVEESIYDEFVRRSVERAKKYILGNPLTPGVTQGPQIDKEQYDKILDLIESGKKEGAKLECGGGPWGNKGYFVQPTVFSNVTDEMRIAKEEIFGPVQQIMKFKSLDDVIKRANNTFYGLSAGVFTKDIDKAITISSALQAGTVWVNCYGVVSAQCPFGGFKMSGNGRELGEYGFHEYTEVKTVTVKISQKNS
Procedure, shortened: (§1)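 Recombinant full-length His-tagged human enzymes expressed in E. coli were pre-incubated 30 min at room temperature with compound (10-point, 3-fold series; top 20 μM for ALDH1A3, 250 μM for ALDH1A1/1A2). Propionaldehyde and NAD were then added at Km; NADH was read by NAD(P)H-Glo luminescence. Buffer: Tris (pH 7.6 for 1A1/1A2, 9.0 for 1A3), 1 mM TCEP, 0.01% Tween-20.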

[2] = molecular target: T2, ALDH1A2 (Homo sapiens, UniProt O94788); assay: as above
T2 construct: His-tag; made in house; host or cells: E. coli Rosetta (DE3)
T2 sequence (O94788 1-518): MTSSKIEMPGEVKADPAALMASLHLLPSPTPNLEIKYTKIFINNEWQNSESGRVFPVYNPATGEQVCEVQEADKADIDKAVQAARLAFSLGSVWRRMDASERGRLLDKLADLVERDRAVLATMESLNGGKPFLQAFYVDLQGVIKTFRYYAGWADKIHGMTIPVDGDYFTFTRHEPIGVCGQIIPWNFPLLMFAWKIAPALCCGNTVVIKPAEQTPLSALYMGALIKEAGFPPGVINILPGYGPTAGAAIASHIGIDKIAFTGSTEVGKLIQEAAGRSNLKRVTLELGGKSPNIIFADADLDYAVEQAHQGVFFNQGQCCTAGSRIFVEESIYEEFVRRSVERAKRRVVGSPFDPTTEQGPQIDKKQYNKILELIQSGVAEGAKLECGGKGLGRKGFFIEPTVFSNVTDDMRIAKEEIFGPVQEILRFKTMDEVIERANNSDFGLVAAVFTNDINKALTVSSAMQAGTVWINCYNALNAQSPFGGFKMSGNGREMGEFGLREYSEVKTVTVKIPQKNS
Procedure, shortened: as §1

Compound	IC50 [1] [µM]	IC50 [2] [nM]
CC1(c2cccc(F)c2)CCCN1CCOc1ccc2c(c1)CCC(=O)N2 (centres unmarked) [ALDHI-2037, 6-[2-[2-(3-fluorophenyl)-2-methyl-pyrrolidin-1-yl]ethoxy]-3,4-dihydro-1H-quinolin-2-one]	≥ 100	100 to 1000
O=C1CCc2cc(OCCN3CC(F)CC3c3cccc(F)c3)ccc2N1 (centres unmarked) [ALDHI-2052, 6-[2-[4-fluoro-2-(3-fluorophenyl)pyrrolidin-1-yl]ethoxy]-3,4-dihydro-1H-quinolin-2-one]	≥ 100	100 to 1000
CN(C)c1nc(-c2cccc(F)c2)c(C(=O)Nc2ccc3c(c2)CCC(=O)N3)s1 [ALDHI-1002, 2-(dimethylamino)-4-(3-fluorophenyl)-N-(2-oxo-3,4-dihydro-1H-quinolin-6-yl)thiazole-5-carboxamide]	≥ 100	1000 to 10000
CN(CCOc1ccc2c(c1)CCC(=O)N2)Cc1cccnc1 [ALDHI-3010, 6-[2-[methyl(3-pyridylmethyl)amino]ethoxy]-3,4-dihydro-1H-quinolin-2-one]	10 to 100	10000 to 100000
O=C1CCc2cc(OCCN3CCCC3c3cc(F)cc(F)c3)ccc2N1 (centres unmarked) [ALDHI-2032, 6-[2-[2-(3,5-difluorophenyl)pyrrolidin-1-yl]ethoxy]-3,4-dihydro-1H-quinolin-2-one]	10 to 100	100 to 1000
O=C1CCc2cc(OCCN(CCO)Cc3cccnc3)ccc2N1 [ALDHI-3005, 6-[2-[2-hydroxyethyl(3-pyridylmethyl)amino]ethoxy]-3,4-dihydro-1H-quinolin-2-one]	≥ 100	10000 to 100000
O=c1ccc2cc(OCCN3CCCC3c3cccc(F)c3)ccc2[nH]1 (centres unmarked) [ALDHI-2022, 6-[2-[2-(3-fluorophenyl)pyrrolidin-1-yl]ethoxy]-1H-quinolin-2-one]	≥ 100	1000 to 10000
O=C1CCc2cc(OCCN3CC(O)CC3c3cccc(F)c3)ccc2N1 (mixture of isomers) [ALDHI-2035, 6-[2-[2-(3-fluorophenyl)-4-hydroxy-pyrrolidin-1-yl]ethoxy]-3,4-dihydro-1H-quinolin-2-one]	10 to 100	100 to 1000
O=C1COc2cc(NC(=O)c3scnc3-c3cccc(F)c3)ccc2N1 [ALDHI-1016, 4-(3-fluorophenyl)-N-(3-oxo-4H-1,4-benzoxazin-7-yl)thiazole-5-carboxamide]	≥ 100	1000 to 10000
CN(CCOc1ccc2c(c1)CCC(=O)N2)C(=O)c1cccc(F)c1 [ALDHI-3008, 3-fluoro-N-methyl-N-[2-[(2-oxo-3,4-dihydro-1H-quinolin-6-yl)oxy]ethyl]benzamide]	≥ 100	1000 to 10000
O=C1CCc2cc(OCCN3CCCC3c3cccnc3)ccc2N1 (centres unmarked) [ALDHI-2005, 6-[2-[2-(3-pyridyl)pyrrolidin-1-yl]ethoxy]-3,4-dihydro-1H-quinolin-2-one]	≥ 100	10000 to 100000
O=C1CCc2cc(OCCN3C(=O)CCC3c3ccccc3)ccc2N1 (centres unmarked) [ALDHI-2051, 6-[2-(2-oxo-5-phenyl-pyrrolidin-1-yl)ethoxy]-3,4-dihydro-1H-quinolin-2-one]	≥ 100	1000 to 10000
O=C1CSc2cc(OCCN3CCCC3c3ccncc3)ccc2N1 (centres unmarked) [ALDHI-2029, 7-[2-[2-(4-pyridyl)pyrrolidin-1-yl]ethoxy]-4H-1,4-benzothiazin-3-one]	≥ 100	10000 to 100000
C[C@@H](c1ccccc1)N(CCO)CCOc1ccc2c(c1)CCC(=O)N2 [ALDHI-3007, 6-[2-[2-hydroxyethyl-[(1S)-1-phenylethyl]amino]ethoxy]-3,4-dihydro-1H-quinolin-2-one]	10 to 100	1000 to 10000
Cc1ccccc1C1CCCN1CCOc1ccc2c(c1)CCC(=O)N2 (centres unmarked) [ALDHI-2012, 6-[2-[2-(o-tolyl)pyrrolidin-1-yl]ethoxy]-3,4-dihydro-1H-quinolin-2-one]	≥ 100	≥ 100000
O=C1CCc2cc(OCCN3CCCC3c3ccccc3)ccc2N1 (centres unmarked) [ALDHI-2019, 6-[2-(2-phenylpyrrolidin-1-yl)ethoxy]-3,4-dihydro-1H-quinolin-2-one]	≥ 100	100 to 1000
